Experimental findings from patent publication US20220177587A1, “METHODS AND USES OF VARIANT CD80 FUSION PROTEINS AND RELATED CONSTRUCTS” (Alpine Immune Sciences, Inc., priority 2018, published 2022) are described below.

The test system of one assay is huPD-L1/B16-F10 cells. Nature of the assay: huPD-L1/B16-F10 melanoma model. Type of assay: in vivo, mouse. The method, then: This variant is an exemplary variant identified to have increased binding affinity for PD-L1 compared to wild-type CD80 and activity to block PD-L1 and CTLA-4 and to provide PD-L1-dependent T cell activation via CD28 costimulatory receptor. To test the anti-tumor activity of the exemplary variant, it was evaluated alone or in combination with an anti-mouse PD-1 monoclonal antibody (clone RMP1-14, rat IgG2a) in mice bearing human PD-L1 (huPD-L1)-expressing B16-F10 tumors, which is a syngeneic mouse melanoma model. This model is an aggressive and, in many cases, a treatment-resistant model.
Subconfluent cells (˜80% confluent) were harvested on the day of implantation (study day 0). The cells were washed twice and brought to a final concentration of 5×10^6 cells/mL in DPBS. Female C57BL/6NJ mice (Jackson Labs, USA) were implanted subcutaneously with approximately 0.5×10^6 huPD-L1/B16-F10 cells. […] The B16-F10 cells at time of implant were evaluated to confirm expression of huPD-L1 by flow cytometry. […]
Tumors were measured with electronic calipers two-dimensionally twice weekly, beginning on day 6 post-tumor cell implant. Tumor volume was calculated as length×(width×2)×0.5, with the length being the longer of the two measurements. […] Calculations for the mean and median were determined on the last day in which at least 70% of mice were alive on study (day 18 post-tumor cell implant).

Assay [1] relates to huPD-L1-expressing MC38 tumors. Nature of the assay: huPD-L1 MC38 tumor model, IP or IT delivery. Type of assay: in vivo, mouse. The method, then:
The MC38 cell line was transduced with human PD-L1 (huPD-L1) Subconfluent cells (˜80% confluent) were harvested on the day of implantation (study day 0), washed twice and brought to a final concentration of 15×10^6 cells/mL in DPBS. Female C57BL/6NJ mice (Jackson Labs, USA) were implanted subcutaneously with approximately 1.5×10^6 cells (0.1 mL) in the right mid-flank region.
On day 7, mice were randomized into six groups, with each group having a similar mean tumor volume (46.6 mm^3).
Tumor volume was measured as described in Example 21 to assess anti-tumor activity. Median tumor growth curves among individual treated mice over time were plotted.
On day 11 post-tumor cell implant and prior to dosing of test articles, five mice from each of Group 1-4 and Group 6 were sacrificed, and the tumors were harvested, weighed and processed for ex vivo tumor analysis. The MC38 cells at time of implant and tumors harvested from a subset of mice on day 11 by enzymatic digestion were evaluated for expression of huPD-L1 or human IgG (to detect Fc of cell-bound test molecules) by flow cytometry. The percent positive and median fluorescent intensity (MFI) of huPD-L1 and huIgG were quantified on the CD45-negative subset of tumor cells.
Tumors at day 11 were also evaluated for CD8+ T cells and for antigen-specific CD8+ T cells within the CD3+ cell population. p15E is an MHC class I restricted T cell antigen expressed in the MC38 tumor cell lines derived from C57BL/6 mice. A mouse MHC class I p15E tetramer labeled with PE (MBL International Corp.) was used to detect the p15E-MHC class I restricted T cell receptor.

The target of another assay is huCTLA4 (Homo sapiens, UniProt P16410). As to the kind of experiment: Antagonism of CD80/CTLA-4 binding on CHO cells expressing CTLA-4. Further details: Full-length mammalian surface expression constructs for each of human CTLA-4, PD-L1, and CD28. Conditions: 25 nM fluorochrome-conjugated wild-type CD80-Fc; FIG. 21. The method, then:
After washing, cells were incubated with 25 nM fluorochrome-conjugated wild-type CD80-Fc. Bound fluorescent competitor protein was detected and measured by flow cytometry.
The multivalent variant CD80 IgSF domain fusion proteins were assessed to test for blocking of the PD-L1/PD-1 and CTLA-4/CD80 interaction performed substantially as described in Example 15. CHO/OKT3/PD-L1 and CHO/CTLA-4 cells were counted and plated at 100,000 cells/well and then incubated with fluorescently conjugated PD-1-Fc and CD80-Fc. Exemplary multivalent variant CD80 IgSF domain fusion proteins were incubated with the cells for 30 minutes. […] Cells were washed and incubated with 100 nM fluorescently conjugated PD-1-Fc and CD80-Fc competitor for 30 minutes. Cells were then washed and samples were acquired on a flow cytometer and MFIs of the fluorescently labeled molecules were determined.

The test system of the next assay is MC38 hPD-L1 tumor cells. As to the kind of experiment: MC38 hPD-L1 tumor model in C57BL/6 mice. In kind it is in vivo, mouse. The protocol: Mouse MC38 tumor cells were stably transfected with human PD-L1 (MC38 hPD-L1) and implanted subcutaneously into C57BU6 mice. […] Tumor volume was tracked over time.
70 female C57CL/6 mice, containing similar tumor volumes of approximately 50-51 mm^3, following implantation of MC38 hPD-L1 tumor cells, were staged and divided into 5 treatment groups containing 14 mice each. […] Tumor volumes were measured on days 7, 10, and 12. On day 13, 5 animals were sacrificed for analysis as described in the sections below. Tumor measurements resumed for the remaining 9 mice for each group on days 17, 20 and 27. On days 26, 28, and 31, the animals in Group 1 (Fc isotype control) received an intratumoral injection of 100 μg E35D/M47L CD80-IgV-Fc.
95 female C57BU6 mice were implanted with MC38 hPD-L1 tumor cells. The tumors were staged on Day 7, and 77 mice with similar tumor volumes of approximately 60 mm^3 were divided into 7 treatment groups containing 11 mice each.
On day 49, tumor-free mice, from Groups 3, 4, 6, and 7, and 2 naïve C57CL/6 mice were re-challenged with an additional injection of hPD-L1 MC38 cells. Tumor volumes were measured on days 56, 59, and 63. The results are depicted in FIG. 13. […] At day 59, 8/8 mice from Group 3, 1/2 mice from Group 4, 1/1 mouse from Group 6, and 2/2 mice from Group 7 were tumor-free, and by day 63, all mice in Group 3, Group 4, Group 6, and Group 7 were tumor-free.
75 animals were staged into 3 treatment groups 7 days after implantation with hPD-L1 MC38 tumor cells. […] Tumor volumes were measured every 3-4 days, from Day 11 until Day 35. 3 days after the 1st dose, 2nd dose and 3rd dose, 4 mice from each group were sacrificed for tumor and LN analyses, leaving 13 mice for tumor volume measurements throughout the study period.

Where [2] appears, read: 3 injections of 100 μg on Days 8, 10 and 12.
[3] abbreviates: re-challenged on day 49 with hPD-L1 MC38 cells.

Sequence of huCTLA4 (P16410 36-223): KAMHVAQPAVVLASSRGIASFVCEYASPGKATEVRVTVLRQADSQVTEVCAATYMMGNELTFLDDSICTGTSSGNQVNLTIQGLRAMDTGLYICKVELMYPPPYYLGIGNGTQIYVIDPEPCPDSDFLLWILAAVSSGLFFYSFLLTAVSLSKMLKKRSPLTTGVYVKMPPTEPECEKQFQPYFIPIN

Turning to “H18Y/A26E/E35D/M47L/V68M/A71G/D90G: variant CD80 IgV-Fc (inert), IgV SEQ ID NO:491”, the tumor growth inhibition in the assay with huPD-L1/B16-F10 cells (in combination with anti-PD-1 mAb, day 18) is 92%. For the same substance, the “tumor growth (median tumor volumes)” value with huPD-L1/B16-F10 cells (in combination with anti-mouse PD-1 mAb, IP days 6, 8, 11) is recorded as “significantly reduced tumor growth”. Also, the “percent of p15E-specific CD8+ T cells in tumors” value in assay [1] (500 or 1500 μg IP or 100 μg IT, day 11) is given as “significantly greater percent of p15E-specific CD8+ T cells as compared to Fc control-treated mice”. Besides, the anti-tumor growth activity result in assay [1] (IT injection 100 μg on days 8, 11 and 14) is on record as “substantial anti-tumor growth activity”. The “anti-tumor activity (tumor volume)” value in assay [1] (single IP injection 100, 500, 1500 μg) was “dose-dependent increase in anti-tumor activity compared to Fc control treatment”. Also, the “antagonism of binding of CD80 to CTLA-4” value in the assay with huCTLA4 is reported as “antagonized the binding of CD80 to CTLA-4”. Moreover, in the assay with MC38 hPD-L1 tumor cells (100 μg on days 7, 9 and 11, 11 mice per group), the “mice with no detectable tumors (tumor-free) upon completion of the study” value was 8 mice. Besides, in the assay with MC38 hPD-L1 tumor cells (setting [2]), the “tumor-free mice at day 35” value was 6/13 and the “tumor-free mice on Day 18” value is 6/13. For the same substance, the “tumor growth / tumor volume” value in the assay with MC38 hPD-L1 tumor cells (i.p. dosing, compared to Fc control or anti-PD-L1) was “greater decrease in the median and mean tumor volumes”. Moreover, in the assay with MC38 hPD-L1 tumor cells (setting [3]), the “tumor-free mice after re-challenge, day 59” value is listed as 8/8 and the “tumor-free mice after re-challenge, day 63” value is given as “tumor-free”.
